Laboratory results published in patent US9497964B2, “Synergistic activity of peracetic acid and at least one SAR inducer for the control of pathogens in and onto growing plants” (AGRI-NEO INC., priority 2010, dated 2016).

Tested on: Fusarium patch disease
Assay: Fusarium patch on turfgrass in British Columbia Canada
Type: in vivo
Details: for % disease control vs untreated / mean # disease spots/plot: 0.6 kg/ha
Description: Creeping bentgrass was naturally inoculated with Fusarium patch disease. Four plots were assessed, and each plot was four square meters of mature turf. Four replicates were used per treatment. […] Azoxystrobin is a broad-spectrum fungicide with a single-site mode of action: it binds very tightly to the Qo site of Complex III in the mitochondrial electron transport chain of fungal pathogens. Thus the disease pest is prevented from generating ATP, so it dies for lack of metabolic energy. Azoxystrobin is itself extracted from certain Eastern European mushrooms reputed for their resistance to disease induced by other fungi. Azoxystrobin, marketed under the brand name of Heritage, is one of the commercial standards used in the management of Fusarium Patch disease on turf grass. It was against this reference that the efficacy of […] in controlling this pathogen was compared and contrasted.
Spray volume was one thousand liters per hectare. Three product applications were made. The interval between applications was 14 days.
Observations (disease symptoms, leaf damage due to product, and grass vigour) were made at the following intervals: • Immediately prior to each application. • Nine days after the last (third) application. • Sixty days after the last (third) application. • Ninety days after the last (third) application.

Compound: CO/C=C(/C(=O)OC)c1ccccc1Oc1cc(Oc2ccccc2C#N)ncn1 [Azoxystrobin]
- % disease control vs untreated (Spring): 17%
- mean # disease spots/plot (Spring): 10
- % disease control vs untreated (Winter): 31%
- mean # disease spots/plot (Winter): 9
- reduction of disease incidence relative to the water-sprayed inoculated control (Azoxystrobin): 15-30%
